Values joined by “and” are separate entries in the source; they are usually repeats but may differ in a detail not shown here. Identical values can stand only once. “Also recorded” adds a separate entry of the source. Like-named read-outs stand apart in the source and are kept apart here.
Assays:
VEGF-induced leukostasis = assay: Retinal leukostasis (concanavalin A perfusion); assay type: in vivo, C57BL/6 mice; settings: 40 µg
Procedure: Leukostasis was measured by staining leukocytes with rhodamine- or FITC-labeled conA[52]. […] Vector Labs Thermofisher). The vasculature was flushed for 4 min with PBS to remove residual unbound conn A. […] Retinas were examined by fluorescence microscopy and the number of intravascular leukocytes throughout the entire retina were counted by an investigator masked with respect to treatment group. […] After washing, retinas were incubated in Alexa Fluor 594-conjugated goat anti-rat secondary antibody (1:500; A-11007 Invitrogen) for 1 h at room temperature. Retinas were washed, flat mounted and examined by fluorescence microscopy.

[1] = system: vascular leakage (vitreous albumin); assay: Measurement of albumin in vitreous samples (ELISA); assay type: in vivo, rho/VEGF mice
Description: Vitreous samples were obtained by inserting a micropipette into the vitreous cavity and gently aspirating the vitreous. Using the manufacturer’s instructions, a mouse albumin ELISA kit (ab108791; […] The plate wa read at 450 and 570 nm with SpectraMax Plus (Molecular Devices, San Jose, CA).

rhodopsin kinase (GRK-1) = assay: Photoreceptor survival: rhodopsin kinase (GRK-1)/actin immunoblot of retinal homogenates; assay type: in vivo, rho/VEGF mice
Procedure: At P42, some mice were euthanized and eyes were marked at the 12:00 pole and frozen in embedding compound. […] At […] five mice were euthanized and retinas were dissected from each eye and homogenized in 150 μl lysis buffer (Abcam, Cambridge, MA) followed by high speed centrifuge (16,000 × g, 15 min). Supernatants were collected in pre-chilled eppendorf tubes. […] Membranes were probed with anti-GRK1 antibody (1:1000; ThermoFischer Scientific, Catalog no. PA5-13725, Lot no. […] Catalog no. A2066, Lot no. 019M4777V, Sigma Life Science, St. Louis, MO) overnight at 4 °C. […] Louis, MO) was added followed by incubation in SuperSignal West Dura Extended Duration Substrate (Thermofisher), and Western blots were imaged and analyzed with a Bio-mad imaging system.

subretinal NV = assay: Subretinal NV in rho/VEGF transgenic mice (type 3 choroidal NV); assay type: in vivo; settings: for Mean area of sunretinal NV per retina: Fig 4b, 40 µg at P14, individual retinas
Procedure: At P21, P28, P35, or P42, mice were euthanized and retinas were stained with FITC-labeled GSA lectin and flat mounted with photoreceptors facing up. Retinal flat mounts were examined by fluorescence microscopy and the area of subretinal NV was measured by image analysis by a masked observer.

[2] = system: choroidal NV at Bruch's membrane rupture sites; assay: Mouse model of laser-induced choroidal NV (type 2); assay type: in vivo, C57BL/6 mice; settings: for CNVsize: individual eyes
Procedure: Mice were treated in accordance with the Association for Research in Vision and Ophthalmology Guidelines on the care and use of animals in research. All protocols were approved by the Animal Care and Use Committee of the Johns Hopkins University School of Medicine. Laser photocoagulation-induced rupture of Bruch’s membrane was used to generate choroidal NV[34]. […] One week after rupture of Bruch’s membrane, mice were euthanized, eyes were removed, anterior segments, retinas, and vitreous was removed, and eye cups were stained with fluorescein isothiocyanate (FITC)-conjugated GSA (Vector Laboratories, Burlingame, CA), and flat mounted. Flat mounts were examined by fluorescence microscopy and the area of each choroidal NV was measured by image analysis with Image-Pro Plus software (Media Cybernetics, Silver Spring, MD) by an observer masked with respect to experimental groups. The three areas obtained in each eye were averaged to give a single experimental value.

[3] = system: photoreceptors (outer nuclear layer); assay: Photoreceptor survival: ONL thickness in mice with type 3 choroidal NV; assay type: in vivo, rho/VEGF mice; settings: for ONL thickness: Fig 5b, 40 µg, P42, individual eyes
[4] = for Average release (%): Fig 1b dissolution of suspension
Procedure: At selected time points, 3 ml of the release medium was collected and replaced with 3 ml fresh release medium.

[5] = Cataract after intravitreous injection in mice; assay type: in vivo, C57BL/6 mice; settings: intravitreous doses of free sunitinib >0.5 µg
Description: The murine model of laser-induced rupture of Bruch’s membrane results in choroidal NV that is similar to type 2 choroidal NV in patients with NVAMD, because the new vessels originate from the choroid and penetrate through Bruch’s membrane and the RPE into the subretinal space. Studies in this model helped to implicate VEGF as a critical stimulus for NVAMD[4] and predicted the clinical benefits seen with aflibercept, a recombinant VEGF-neutralizing protein commonly used to treat patients with NVAMD[6],[35].

[6] = cited from earlier work
[7] = Melanin binding of sunitinib in vitro; assay type: in vitro ADME, sepia officialis; settings: for percentage of melanin-bound sunitinib: 10 mg melanin in PBS, 1 h
[8] = Pharmacokinetic study in mice (drug remaining in eye, LC-MS); assay type: in vivo, C57BL/6N mice; settings: for Remaining Drug (Normalized against T0) (%): mouse eye, intravitreous 1 µg sunitinib or equivalent
Description: Twenty male or female 5–7-week-old C57BL/6N mice were anesthetized and the pupils were dilated as previously described. […] […], 5 mice from each condition were euthanized and the whole globes were collected and transferred to a bioanalytical facility for measurement of drug levels by liquid chromatography–mass spectrometry (LC–MS). The amount of drug remaining in the eye at 30 days was compared to and presented as a percentage of the initial dose injected in the eye.

[9] = design: method as in rabbit PK study previously conducted by the authors; settings: rabbit; ref rabbit PK study previously conducted by the authors; cited from earlier work

## aflibercept
VEGF-induced leukostasis; 200 ng VEGF one week later, 24 h
  mean number of adherent intravascular leukocytes vs PBS eyes: significant reduction
VEGF-induced leukostasis; Fig 6a, individual retinas
  Intravascular leukocytes per retina: 51 and 28 and 33 and 20 and 18 and 23 and 44 and 54
[1]; Fig 4d, vitreous, 1 week after 40 µg at P28, individual eyes
  Concentrate of Albmin: 0.1634 µg and 0.1282 µg and 0.1305 µg and 0.1935 µg and 0.4253 µg
[1]; P28 rho/VEGF mice, 1 week after intravitreous 40 µg
  mean vitreous albumin concentration vs PBS eyes: significantly less; also recorded: significant reduction
Rhodopsin kinase (GRK-1); 40 µg at P14, P49
  rhodopsin kinase/actin ratio vs PBS eyes: no difference
Rhodopsin kinase (GRK-1); Fig 5d, 40 µg, P49, individual retinas
  GRK-1/Actin: 0.8885 and 0.8156 and 1.021 and 0.9707 and 0.8036
Subretinal NV; P21
  Mean area of sunretinal NV per retina: 0.006443 mm2 and 0.004033 mm2 and 0.006827 mm2 and 0.01579 mm2 and 0.001837 mm2 and 0.02155 mm2 and 0.01187 mm2 and 0.0074 mm2 and 0.009835 mm2 and 0.01142 mm2 and 0.01439 mm2 and 0.004674 mm2
Subretinal NV; P28
  Mean area of sunretinal NV per retina: 0.01232 mm2 and 0.01247 mm2 and 0.01867 mm2 and 0.01277 mm2 and 0.01806 mm2 and 0.01223 mm2 and 0.007648 mm2 and 0.002213 mm2 and 0.009102 mm2
Subretinal NV; P35
  Mean area of sunretinal NV per retina: 0.01325 mm2 and 0.02508 mm2 and 0.02389 mm2 and 0.02314 mm2 and 0.01559 mm2 and 0.02014 mm2 and 0.01286 mm2 and 0.008195 mm2 and 0.01062 mm2 and 0.006501 mm2 and 0.02165 mm2 and 0.01911 mm2 and 0.01968 mm2 and 0.008771 mm2 and 0.02218 mm2 and 0.008675 mm2
Subretinal NV; P42
  Mean area of sunretinal NV per retina: 0.01663 mm2 and 0.008316 mm2 and 0.01691 mm2 and 0.01919 mm2 and 0.01735 mm2 and 0.02425 mm2 and 0.00731 mm2 and 0.02809 mm2 and 0.01595 mm2
Subretinal NV; intravitreous 40 µg
  duration of inhibition of subretinal NV: 1 week
Subretinal NV; intravitreous 40 µg at P14, P21
  mean area of NV per retina vs PBS eyes: significantly less; also recorded: significantly lower
[2]; Fig 2d, intravitreous 40 µg, 1W
  CNVsize: 0.008066 mm2 and 0.009648 mm2 and 0.01333 mm2 and 0.01287 mm2 and 0.01253 mm2 and 0.01268 mm2 and 0.009735 mm2 and 0.0107 mm2
[2]; Fig 2d, intravitreous 40 µg, 9W
  CNVsize: 0.03895 mm2 and 0.02251 mm2 and 0.03758 mm2 and 0.02161 mm2 and 0.01535 mm2 and 0.02051 mm2 and 0.02183 mm2
[2]; Fig 2d, intravitreous 40 µg, 15W, listed as Alfibercept
  CNVsize: 0.02431 mm2 and 0.01432 mm2 and 0.01526 mm2 and 0.01738 mm2 and 0.01801 mm2 and 0.01547 mm2
[2]; intravitreous 40 µg, 1 week after injection
  choroidal NV vs PBS fellow eye: significant suppression; also recorded: significant reduction
[3]; 40 µg at P14, measured at P42
  mean ONL thickness vs PBS eyes: no significant difference
[3]; location I1
  ONL thickness: 0.0549 mm and 0.04725 mm and 0.03173 mm and 0.03578 mm and 0.03893 mm and 0.04095 mm and 0.03375 mm
[3]; location I2
  ONL thickness: 0.0504 mm and 0.04905 mm and 0.03735 mm and 0.04072 mm and 0.04027 mm and 0.05108 mm and 0.0387 mm
[3]; location I3
  ONL thickness: 0.05017 mm and 0.03982 mm and 0.03465 mm and 0.03645 mm and 0.0351 mm and 0.04972 mm and 0.04208 mm
[3]; location S1
  ONL thickness: 0.04253 mm and 0.0441 mm and 0.03465 mm and 0.0414 mm and 0.04478 mm and 0.04545 mm
[3]; location S2
  ONL thickness: 0.04208 mm and 0.05085 mm and 0.0423 mm and 0.04275 mm and 0.04905 mm and 0.03982 mm and 0.0504 mm
[3]; location S3
  ONL thickness: 0.04163 mm and 0.0486 mm and 0.03825 mm and 0.04095 mm and 0.04455 mm and 0.03915 mm and 0.0495 mm

## CCN(CC)CCNC(=O)c1c(C)[nH]c(/C=C2\C(=O)Nc3ccc(F)cc32)c1C [sunitinib, reference compound]
[4]; 0.125 days
  Average release (%): 34.3%
[4]; 1 day
  Average release (%): 51.9%
[4]; 3 days
  Average release (%): 68.4%
[4]; 10 days
  Average release (%): 89.0%
[4]; 17 days
  Average release (%): 95.0%
[4]; 24 days
  Average release (%): 99.5%
[4]; 30 days
  Average release (%): 100.0%
[4]; Fig. 1b, open squares
  behaviour in release medium in vitro: rapidly eluted and dissolved in release medium
[2]; Fig 2c, intravitreous free sunitinib 0.1µg, 1 week
  CNVsize: 0.01929 mm2 and 0.0114 mm2 and 0.03268 mm2 and 0.02288 mm2 and 0.01524 mm2 and 0.02254 mm2 and 0.02987 mm2 and 0.01948 mm2 and 0.01091 mm2
[2]; Fig 2c, intravitreous free sunitinib 0.5µg, 1 week
  CNVsize: 0.008346 mm2 and 0.0258 mm2 and 0.01396 mm2 and 0.0209 mm2 and 0.02253 mm2 and 0.02124 mm2 and 0.01904 mm2 and 0.01077 mm2 and 0.02107 mm2 and 0.01493 mm2
[2]; intravitreous 0.5 or 0.1 µg free sunitinib, 1 week
  mean area of choroidal NV vs PBS fellow eye: no significant difference; also recorded: no significant reduction
[5]
  cataract: severe cataract
[6]; pH 1.2–6.8
  solubility in acidic aqueous solutions: high solubility
[6]; pH 7.4
  aqueous solubility: low aqueous solubility
[7]; at a ratio of <10
  percentage of drug bound to melanin: 96–99.8%
[7]; sunitinib-to-melanin mass ratio 0.001%
  percentage of melanin-bound sunitinib: 99.8%
[7]; sunitinib-to-melanin mass ratio 20%
  percentage of melanin-bound sunitinib: ~ 80%
[8]; both sexes, C57BL/6N, mouse, whole eye (globe), other: intravitreous injection, 1 µg, read-out: overall half-life in mouse eyes (converted)
  half-life: ~50.4 h
[8]; day 7, listed as Sunitinib Suspension
  Remaining Drug (Normalized against T0) (%): 10.1%
[8]; day 7, listed as free sunitinib
  Remaining Drug (Normalized against T0) (%): 10.1±0.7%
[8]; day 30, listed as Sunitinib Suspension
  Remaining Drug (Normalized against T0) (%): 8.8%
[8]; day 30, listed as sunitinib drug suspension
  Remaining Drug (Normalized against T0) (%): 9%
[9]
  vitreous half-life: ~ 2 days
